Laboratory results as given in PubChem BioAssay AID330 (DTP/NCI, 2004).
Values joined by “and” are separate entries in the source; they are usually repeats but may differ in a detail not shown here. Identical values can stand only once. Toxic doses and inconclusive results are not listed.

Tested on: P388 leukemia ip, CD2F1 mice, survival T/C
Experiment: NCI In Vivo Anticancer Drug Screen. Data for tumor model P388 Leukemia (intraperitoneal) in CD2F1 (CDF1) mice
Settings: endpoint: median survival time, higher = longer survival
How it was run: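 Mice carrying the transplanted tumor received test compound or vehicle. Survival was recorded in each group, and the value is the treated-group measurement divided by that of the vehicle-treated control group.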

[1] = dose: 12.5 mg/kg/injection, schedule: Q01DX009 (ip), vehicle: Klucel (hydroxypropylcellulose) (HPC)
[2] = dose: 12.5 mg/kg/injection, schedule: Q01DX009 (ip), vehicle: saline with Tween-80
[3] = dose: 25.0 mg/kg/injection, schedule: Q01DX009 (ip), vehicle: Klucel (hydroxypropylcellulose) (HPC)
[4] = dose: 25.0 mg/kg/injection, schedule: Q01DX009 (ip), vehicle: saline with Tween-80
[5] = dose: 50.0 mg/kg/injection, schedule: Q01DX009 (ip), vehicle: Klucel (hydroxypropylcellulose) (HPC)
[6] = dose: 50.0 mg/kg/injection, schedule: Q01DX005 (ip), vehicle: saline with Tween-80
[7] = dose: 100.0 mg/kg/injection, schedule: Q01DX005 (ip), vehicle: saline with Tween-80
[8] = dose: 200.0 mg/kg/injection, schedule: Q01DX005 (ip), vehicle: saline with Tween-80
[9] = dose: 50.0 mg/kg/injection, schedule: Q01DX009 (ip), vehicle: saline
[10] = dose: 100.0 mg/kg/injection, schedule: Q01DX009 (ip), vehicle: saline
[11] = dose: 200.0 mg/kg/injection, schedule: Q01DX009 (ip), vehicle: saline
[12] = dose: 50.0 mg/kg/injection, schedule: Q01DX005 (ip), vehicle: saline
[13] = dose: 100.0 mg/kg/injection, schedule: Q01DX005 (ip), vehicle: saline
[14] = dose: 200.0 mg/kg/injection, schedule: Q01DX005 (ip), vehicle: saline
[15] = dose: 50.0 mg/kg/injection, schedule: Q01DX009 (ip), vehicle: saline with Tween-80
[16] = dose: 100.0 mg/kg/injection, schedule: Q01DX009 (ip), vehicle: saline with Tween-80
[17] = dose: 60.0 mg/kg/injection, schedule: Q01DX005 (ip), vehicle: saline with Tween-80
[18] = dose: 120.0 mg/kg/injection, schedule: Q01DX005 (ip), vehicle: saline with Tween-80
[19] = dose: 240.0 mg/kg/injection, schedule: Q01DX005 (ip), vehicle: saline with Tween-80
[20] = dose: 200.0 mg/kg/injection, schedule: Q01DX009 (ip), vehicle: saline with Tween-80
[21] = dose: 50.0 mg/kg/injection, schedule: Q01DX005 (ip), vehicle: Klucel (hydroxypropylcellulose) (HPC)
[22] = dose: 100.0 mg/kg/injection, schedule: Q01DX005 (ip), vehicle: Klucel (hydroxypropylcellulose) (HPC)
[23] = dose: 200.0 mg/kg/injection, schedule: Q01DX005 (ip), vehicle: Klucel (hydroxypropylcellulose) (HPC)

Cc1cnc(/C=N\NC(N)=S)c2cccc(N)c12
T/C (dose: 1.57 mg/kg/injection, schedule: Q01DX009 (ip), vehicle: saline with Tween-80): 120 % of control | T/C (dose: 3.12 mg/kg/injection, schedule: Q01DX009 (ip), vehicle: saline with Tween-80): 103 % of control | T/C (dose: 4.32 mg/kg/injection, schedule: Q01DX005 (ip), vehicle: clinical formulation): 121 % of control | T/C (dose: 6.25 mg/kg/injection, schedule: Q01DX009 (ip), vehicle: water): 170 % of control | T/C (dose: 12.0 mg/kg/injection, schedule: Q01DX005 (ip), vehicle: clinical formulation): 152 % of control | T/C [1]: 162 % of control and 163 % of control | T/C (dose: 12.5 mg/kg/injection, schedule: Q01DX009 (ip), vehicle: other): 188 % of control | T/C [2]: 168 % of control | T/C (dose: 12.5 mg/kg/injection, schedule: Q01DX009 (ip), vehicle: saline): 150 % of control | T/C (dose: 12.5 mg/kg/injection, schedule: Q01DX009 (ip), vehicle: water): 189 % of control | T/C (dose: 20.0 mg/kg/injection, schedule: Q01DX005 (ip), vehicle: clinical formulation): 155 % of control | T/C [3]: 179 % of control and 193 % of control | T/C (dose: 25.0 mg/kg/injection, schedule: Q01DX009 (ip), vehicle: other): 97 % of control | T/C [4]: 184 % of control | T/C (dose: 25.0 mg/kg/injection, schedule: Q01DX009 (ip), vehicle: saline): 172 % of control | T/C (dose: 25.0 mg/kg/injection, schedule: Q01DX009 (ip), vehicle: water): 218 % of control | T/C [5]: 109 % of control

COc1nc2cc3c(cc2n2cccc12)oc1ccccc13
T/C (dose: 25.0 mg/kg/injection, schedule: Q01DX005 (ip), vehicle: saline with Tween-80): 95 % of control | T/C [6]: 96 % of control | T/C [7]: 102 % of control

CCOc1c(N=Nc2ccccc2Cl)c(-c2ccccc2)nn1C(N)=S
T/C [6]: 94 % of control | T/C [7]: 90 % of control | T/C [8]: 102 % of control

CC1=C(C)/C(=C/c2ccccn2)NC1=O
T/C (dose: 60.0 mg/kg/injection, schedule: Q01DX005 (ip), vehicle: Klucel (hydroxypropylcellulose) (HPC)): 98 % of control | T/C (dose: 120.0 mg/kg/injection, schedule: Q01DX005 (ip), vehicle: Klucel (hydroxypropylcellulose) (HPC)): 105 % of control | T/C (dose: 240.0 mg/kg/injection, schedule: Q01DX005 (ip), vehicle: Klucel (hydroxypropylcellulose) (HPC)): 98 % of control

[Cu+2].[NH-]C(CC(=O)O)C(=O)O.[NH-]C(CC(=O)O)C(=O)O (stereo not given)
T/C (dose: 7.5 mg/kg/injection, schedule: Q01DX005 (ip), vehicle: saline with Tween-80): 98 % of control | T/C (dose: 15.0 mg/kg/injection, schedule: Q01DX005 (ip), vehicle: saline with Tween-80): 100 % of control | T/C (dose: 30.0 mg/kg/injection, schedule: Q01DX005 (ip), vehicle: saline with Tween-80): 111 % of control

COC1(OC)C(Cl)=C(Cl)C(Cl)=C1Cl
T/C (dose: 6.25 mg/kg/injection, schedule: Q01DX009 (ip), vehicle: saline with Tween-80): 95 % of control | T/C [2]: 118 % of control | T/C [4]: 113 % of control

CCN(CC)CCCC(CCl)Nc1ccnc2cc(Cl)ccc12 (stereo not given)
T/C [5]: 113 % of control | T/C [9]: 97 % of control | T/C (dose: 100.0 mg/kg/injection, schedule: Q01DX009 (ip), vehicle: Klucel (hydroxypropylcellulose) (HPC)): 100 % of control | T/C [10]: 100 % of control | T/C (dose: 200.0 mg/kg/injection, schedule: Q01DX009 (ip), vehicle: Klucel (hydroxypropylcellulose) (HPC)): 98 % of control

C#Cc1cccc(N=Cc2cc(Cl)cc(C)c2O)c1
T/C [6]: 88 % of control | T/C [7]: 91 % of control | T/C [8]: 102 % of control

CC(=O)Cc1c(-c2ccccc2)nc(=S)[nH]c1C
T/C [9]: 100 % of control and 97 % of control | T/C [10]: 91 % of control and 92 % of control | T/C [11]: 100 % of control and 94 % of control and 96 % of control

CC1OCOC(CO)C(O)C1O (stereo not given)
T/C [12]: 101 % of control | T/C [13]: 105 % of control | T/C [14]: 105 % of control

CC(=O)N(O)c1ccc(C(N)=O)cc1
T/C [9]: 99 % of control | T/C [10]: 106 % of control | T/C [11]: 106 % of control

CCCCCC(CN(C)C)C(=O)/C=C/c1ccc2c(c1)OCO2 (stereo not given)
T/C [15]: 123 % of control | T/C [16]: 109 % of control

N=C(N)c1ccc2oc(/C=C/C=C/C=C/c3cc4cc(C(=N)N)ccc4o3)cc2c1
T/C (dose: 100.0 mg/kg/injection, schedule: Q04DX003 (ip), vehicle: saline): 124 % of control

COC1=C(OC)C(=O)C2=C(OCO2)C1=O
T/C [17]: 104 % of control | T/C [18]: 100 % of control | T/C [19]: 107 % of control

CC(=O)NS(=O)(=O)c1ccc(N=NC2C(=O)N(C(=O)c3ccncc3)N=C2C)cc1 (stereo not given)
T/C [15]: 95 % of control | T/C [16]: 97 % of control | T/C [20]: 100 % of control

CCc1nc(N)nc(N)c1-c1ccc(Cl)c(NC(C)=O)c1
T/C (dose: 3.13 mg/kg/injection, schedule: Q01DX009 (ip), vehicle: distilled water + Tween-80): 94 % of control | T/C (dose: 6.25 mg/kg/injection, schedule: Q01DX009 (ip), vehicle: distilled water + Tween-80): 94 % of control | T/C (dose: 12.5 mg/kg/injection, schedule: Q01DX009 (ip), vehicle: distilled water + Tween-80): 94 % of control | T/C (dose: 25.0 mg/kg/injection, schedule: Q01DX009 (ip), vehicle: distilled water + Tween-80): 88 % of control | T/C (dose: 50.0 mg/kg/injection, schedule: Q01DX009 (ip), vehicle: distilled water + Tween-80): 91 % of control

CC1(C)Cc2c(nc3ccccc3c2C(N)=O)-c2ccccc21
T/C [21]: 88 % of control | T/C [22]: 88 % of control | T/C [23]: 88 % of control

Nc1nc2[nH]c(=O)[nH]c2c(=O)[nH]1
T/C [6]: 94 % of control | T/C [7]: 93 % of control | T/C [8]: 91 % of control

C=CCNc1nc2c(s1)c(C)c(O)c1ccccc12
T/C [17]: 93 % of control | T/C [18]: 96 % of control | T/C [19]: 106 % of control

CN1CCC(C(c2ccccc2)c2ccccc2)C1 (stereo not given)
T/C [1]: 100 % of control | T/C [3]: 102 % of control | T/C [5]: 105 % of control

O=C1c2ccccc2-c2c(NC(=O)C(Cl)Cl)cccc21
T/C [21]: 87 % of control | T/C [22]: 86 % of control | T/C [23]: 86 % of control

C[N+](C)(C)CC(=O)O
T/C (dose: 10.0 mg/kg/injection, schedule: Q01DX005 (ip), vehicle: saline): 104 % of control | T/C (dose: 20.0 mg/kg/injection, schedule: Q01DX005 (ip), vehicle: saline): 99 % of control | T/C (dose: 31.25 mg/kg/injection, schedule: Q01DX005 (ip), vehicle: saline): 100 % of control | T/C (dose: 40.0 mg/kg/injection, schedule: Q01DX005 (ip), vehicle: saline): 98 % of control | T/C (dose: 62.5 mg/kg/injection, schedule: Q01DX005 (ip), vehicle: saline): 105 % of control | T/C (dose: 125.0 mg/kg/injection, schedule: Q01DX005 (ip), vehicle: saline): 91 % of control | T/C (dose: 250.0 mg/kg/injection, schedule: Q01DX005 (ip), vehicle: saline): 87 % of control

CSc1nc(Cl)c(Br)c(Sc2nc(N)nc3nc[nH]c23)n1
T/C [15]: 122 % of control | T/C [16]: 109 % of control | T/C (dose: 100.0 mg/kg/injection, schedule: Q04DX003 (ip), vehicle: saline with Tween-80): 118 % of control | T/C (dose: 200.0 mg/kg/injection, schedule: Q04DX003 (ip), vehicle: saline with Tween-80): 150 % of control

CCOC(=O)c1cc(Cl)nc2ccc3ccccc3c12
T/C [6]: 95 % of control | T/C [7]: 98 % of control | T/C [8]: 100 % of control

CNC(=O)OCn1cnc(Cl)c1Cl
T/C [12]: 93 % of control | T/C [13]: 101 % of control | T/C [14]: 102 % of control

COC(=O)C(N)C(C)C (stereo not given)
T/C [12]: 100 % of control | T/C [13]: 92 % of control

O=S1(c2ccccc2)=NC(Nc2ccccc2)=Nc2ccccc21 (stereo not given)
T/C [15]: 107 % of control | T/C [16]: 101 % of control | T/C [20]: 111 % of control
